Experiment [1] has as its system Staphylococcus aureus. Briefly: Antibacterial activity against Staphylococcus aureus SA113 by microbroth dilution assay. It is filed as functional.
Experiment [2] concerns the target T1, Sortase A (Staphylococcus aureus) (UniProt Q9S446).
T1 sequence (whole entry): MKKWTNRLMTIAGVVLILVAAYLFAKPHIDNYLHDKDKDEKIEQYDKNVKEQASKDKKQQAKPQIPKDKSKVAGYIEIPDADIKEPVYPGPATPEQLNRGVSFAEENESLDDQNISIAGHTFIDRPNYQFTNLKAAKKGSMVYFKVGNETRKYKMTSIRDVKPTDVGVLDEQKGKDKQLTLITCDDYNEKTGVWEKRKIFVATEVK
Briefly: Binding affinity to Staphylococcus aureus SrtA assessed as kinact/ki.

In experiment [3] the target is T2, Sortase A (Staphylococcus aureus, UniProt Q9S446).
T2 sequence (Q9S446 whole entry): T1 sequence (whole entry)
Briefly: Inhibition of Staphylococcus aureus SrtA using […] as substrate by FRET assay.

For experiment [4], the target named is T2, Sortase A. Briefly: Inhibition of recombinant Staphylococcus aureus ATCC 6538p SrtA expressed in Escherichia coli TOP10 using Dabcyl-QALPETGEE-Edans as substrate incubated for 1 hr by fluorometric analysis.
Experiment [5] addresses T2, Sortase A. Briefly: Binding affinity to wild type recombinant Staphylococcus aureus SrtA using Dabcyl-Gln-Ala-Leu-Pro-Glu-Thr-Gly-Glu-Glu-Edans as substrate by FRET assay.
For experiment [6], the target named is T1, Sortase A (Staphylococcus aureus). The experiment in a line: Binding affinity to wild type recombinant Staphylococcus aureus SrtA using Dabcyl-Gln-Ala-Leu-Pro-Glu-Thr-Gly-Glu-Glu-Edans as substrate assessed as second order rate constant of inhibition, kinact/Ki by FRET assay.
For experiment [7] the target is unchanged. Briefly: Binding affinity to wild type recombinant Staphylococcus aureus SrtA using Dabcyl-Gln-Ala-Leu-Pro-Glu-Thr-Gly-Glu-Glu-Edans as substrate assessed as first order rate constant of inactivation by FRET assay.
In experiment [8] the target is T2, Sortase A. The experiment in a line: Inhibition of Staphylococcus aureus ATCC 6538p SrtA using dabcyl-LPETG-edans as substrate incubated for 1 hr by fluorometric analysis.
Experiment [9] deals with T2, Sortase A. Briefly: Inhibition of C-terminal 6His-tagged recombinant Staphylococcus aureus SrtA with 1 to 59 residues truncated from N-terminus expressed in Escherichia coli BL21 (DE3) using dabcyl-QALPETGEE-edans as substrate preincubated for 1 hr followed by substrate addition and measured for 1 hr by FRET assay.
The test system of experiment [10] is Staphylococcus aureus. The experiment in a line: Inhibition of biofilm formation in Staphylococcus aureus ATCC 29213 incubated for 24 hrs by crystal violet staining based analysis. As to conditions: ATCC 29213, 24 h. It is filed as functional, organism-based.
The target of experiment [11] is T2, Sortase A. The experiment in a line: Inhibition of Staphylococcus aureus SrtA using EDANS-Dabcyl as substrate by FRET assay.
For experiment [12], the system named is Staphylococcus aureus. The experiment in a line: Antibacterial activity against Staphylococcus aureus Newman assessed as inhibition of bacterial growth by spectrophotometer method. The class given is functional.
The target in experiment [13] is T1, Sortase A (Staphylococcus aureus). The experiment in a line: Binding affinity to Staphylococcus aureus SrtA (60 to 206 residues) using Dabcyl-Gln-Ala-Leu-Pro-Glu-Thr-Gly-Glu-Glu-Edans as substrate assessed as second order rate constant of inhibition, kinact/ki incubated for 12 hrs by fluorescence based analysis.
Experiment [14] has the same target. The experiment in a line: Binding affinity to Staphylococcus aureus SrtA (60 to 206 residues) using Dabcyl-Gln-Ala-Leu-Pro-Glu-Thr-Gly-Glu-Glu-Edans as substrate assessed as first order rate constant of inactivation incubated for 12 hrs by fluorescence based analysis.
Experiment [15] has as its target T2, Sortase A. The experiment in a line: Binding affinity to Staphylococcus aureus SrtA (60 to 206 residues) using Dabcyl-Gln-Ala-Leu-Pro-Glu-Thr-Gly-Glu-Glu-Edans as substrate incubated for 12 hrs by fluorescence based analysis.
Experiment [16] addresses T2, Sortase A. The experiment in a line: Inhibition of Staphylococcus aureus USA 300 SrtA expressed in Escherichia coli BL21 (DE3) cells using Dabcyl-QALPETGEE-Edans as substrate incubated for 1 hr by FRET assay.
Experiment [17] deals with Staphylococcus aureus. Briefly: Antibacterial activity against Staphylococcus aureus. It is filed as functional.
Experiment [18] concerns Staphylococcus aureus. Briefly: Inhibition of biofilm formation in Staphylococcus aureus ATCC 6538 incubated for 24 hrs by crystal violet staining based analysis. It is filed as functional, organism-based. As to conditions: ATCC 6538, 24 h.
For experiment [19], the target named is T2, Sortase A. Briefly: Inhibition of Staphylococcus aureus SrtA (60 to 206 residues) using Abz-LPETG-Dap(Dnp)-NH2 as substrate incubated for 1 hr by FRET assay.
Experiment [20] has as its target T1, Sortase A (Staphylococcus aureus). Briefly: Inhibition of Staphylococcus aureus SrtA expressed in Escherichia coli BL21 (DE3) cells using Abz-LPETG-Dap(Dnp) as substrate assessed as kinact/ki.
Experiment [21] has as its target T2, Sortase A. Briefly: Inhibition of Staphylococcus aureus SrtA expressed in Escherichia coli BL21 (DE3) cells using Abz-LPETG-Dap(Dnp) as substrate preincubated for 30 mins followed by substrate addition and further incubated for 30 mins by HPLC analysis.
Experiment [22] concerns the target T2, Sortase A. Briefly: Inhibition of recombinant Staphylococcus aureus SrtA using DabcylQALPETGEE-Edans as substrate by FRET assay.
The subject of experiment [23] is Staphylococcus aureus. The experiment in a line: Antibacterial activity against Staphylococcus aureus ATCC 6538p assessed as inhibition of bacterial growth incubated overnight by spectrophotometer. It is filed as functional.
Experiment [24] addresses T2, Sortase A. The experiment in a line: Inhibition of Staphylococcus aureus USA 300 SrtA expressed in Escherichia coli BL21 (DE3) cells using Dabcyl-QALPETGEE-Edans as substrate preincubated for 30 mins followed by substrate addition and further incubated for 1 hr by FRET assay.

Converted amounts (≈) assume the structure as drawn. Counter-ions that a name gives are not always drawn. Residues, ends and D or L forms follow the SMILES beside them. *: point of attachment. Cbz = O=C(OCc1ccccc1)*; CH2Cl = ClC*

The MIC is the smallest concentration in the dilution series that meets the test's criterion for growth inhibition. One may read the IC50 as the concentration at which inhibition is half-maximal. The term Ki denotes a dissociation constant, usually derived from enzyme kinetics or from competition with a known ligand.

In turn, `CSSc1ccccc1C(=O)NCC(=O)NC12CC3CC(CC(C3)C1)C2` registered an MIC in the experiment with Staphylococcus aureus [1] of 16 µM (≈ 6.25 µg/mL). Also, the Ratio in experiment [2] was 5.93 10^4/M/min.
For the molecule `O=c1cc(-c2ccc(O)cc2)oc2cc(O)c([C@@H]3O[C@H](CO)[C@@H](O)[C@H](O)[C@H]3O)c(O)c12` [ISOVITEXIN], the IC50 against Sortase A [3] stood at 67 µM.
As to `O=c1c(O)c(-c2cc(O)c(O)c(O)c2)oc2cc(O)cc(O)c12` [MYRICETIN], the IC50 on Sortase A [4] turned out to be 44 µM.
For the molecule `CC(C)C[C@H](NC(=O)OCc1ccccc1)C(=O)N1CCC[C@H]1C(=O)N[C@@H](C)C(=O)N[C@H](C(=O)CCl)[C@@H](C)O` (Cbz-LPAT-CH2Cl), the inhibition constant Ki on Sortase A [5] was determined as 0.2 µM. Also, in experiment [6], the Ratio was 5.3 10^4/M/min and the kinact/Ki is 883 M⁻¹ s⁻¹. Besides, the Kinact in experiment [7] was 1.1 10^-2/min.
`C[C@H]1CC[C@H]2[C@@H](C=C[C@@](C)(O)[C@]2(C)C(=O)CCO)C1` displayed a half-inhibitory concentration (IC50) at Sortase A [8] of 146 µM.
Take `Cc1cc(C(=O)/C(=N/Nc2ccc(Cl)c(Cl)c2)C(=O)O)no1`: the half-maximal inhibitory concentration (IC50) was above 200 µM on Sortase A [9] and 0.8 µM in the experiment on Staphylococcus aureus [10].
Turning to `O=C(NCCSSCCNC(=O)/C(Cc1ccc(O)c(Br)c1)=N/O)/C(Cc1ccc(O)c(Br)c1)=N/O` [PSAMMAPLIN A], on Sortase A [11], half-maximal inhibition (IC50) was put at 47.4 µM. In addition, in the experiment on Staphylococcus aureus [12], the MIC is above 200 µg/mL.
Regarding `CC(C)C[C@H](NC(=O)OCc1ccccc1)C(=O)N1CCC[C@H]1C(=O)N[C@@H](C)C(=O)N[C@@H](/C=C/S(=O)(=O)c1ccccc1)[C@@H](C)O`, in [13], the Kinact was determined as 0.74 M⁻¹ s⁻¹ and the Ratio was determined as 44.4 M⁻¹ min⁻¹. Further, in [14], the Kinact was 4 10^-4/min. This molecule also displayed an inhibition constant Ki on Sortase A [15] of 9 µM.
On Sortase A [16], `CCCC(=O)c1c(O)c(CC2=C(O)C(C)(C)C(=O)C(C(C)=O)=C2O)c(O)c(Cc2c(O)c(C(=O)CCC)c(O)c(C(C)C3=C(O)C(C)(C)C(=O)C(C(C)=O)=C3O)c2O)c1O` (centres undefined) returned an IC50 of 24.2 µM.
Molecule `CSSc1ccccc1C(=O)N1CCC[C@H]1C(=O)NC12CC3CC(CC(C3)C1)C2` returned an MIC with Staphylococcus aureus [1] of 116 µM (≈ 50 µg/mL). For the same molecule, the Ratio in experiment [2] is 5.75 10^4/M/min.
`CCOC(=O)/C(=N\Nc1c(F)cccc1F)C(=O)c1cc(C)nn1CC` displayed a minimum inhibitory concentration (MIC) against Staphylococcus aureus [17] above 200 µM. Further, the half-inhibitory concentration (IC50) on Sortase A [9] is 75 µM; in the experiment on Staphylococcus aureus [18], 0.9 µM.
Regarding `CCSSc1ccccc1C(=O)NCC(=O)NC12CC3CC(CC(C3)C1)C2`, the MIC in the experiment with Staphylococcus aureus [1] was 7.74 µM (≈ 3.13 µg/mL). For the same molecule, in [2], the Ratio is 5.79 10^4/M/min.
Molecule `O=[N+]([O-])c1ccc(C2Nc3cccc4cccc(c34)N2)cc1` gave a concentration for half-maximal inhibition (IC50) against Sortase A [19] of 80 µM.
On to `CCOC(=O)/C(=N\Nc1ccc(Cl)c(Cl)c1)C(=O)c1cc(C)nn1CC`, for which the IC50 on Sortase A [9] was above 200 µM; in the experiment on Staphylococcus aureus [10] it was 1.7 µM.
Regarding `O=S(=O)(/C=C\C(F)(F)F)c1ccccc1`, the Ratio in experiment [20] stood at 90 M⁻¹ min⁻¹. The same molecule yielded an IC50 against Sortase A [21] of 190 µM.
As to `COc1ccc2cc3[n+](cc2c1OC)CCc1cc2c(cc1-3)OCO2` [BERBERINE SULFATE], the IC50 at Sortase A [22] is 26.5 µM.
Regarding `COc1ccc(-c2coc3cc(O)ccc3c2=O)cc1` [FORMONONETIN], the IC50 on Sortase A [4] was determined as 74.9 µM. Further, in the experiment with Staphylococcus aureus [23], the minimal inhibitory concentration (MIC) is above 478 µM.
On Sortase A [24], `O=C(/C=C/c1ccccc1)c1ccccc1` [CHALCONE] displayed a half-maximal inhibitory concentration (IC50) of 53.2 µM.

Values taken from ChEMBL document CHEMBL5226340, “Chemical Biology of Sortase A Inhibition: A Gateway to Anti-infective Therapeutic Agents” (J Med Chem, 2021).
